{
  "source": "patent US10632181B2",
  "about": "“Composition, containing RGD motif-containing peptide or fragment thereof, for treating burns and glaucoma, alleviating skin wrinkles, and promoting hair growth” (HUONS CO., LTD., priority 2014, dated 2020)",
  "key": {"[1]": {"system": "skin", "test": "Safety assessment of test product on skin", "conditions": "use for 4 weeks, dermatologist's physical examination", "method": "(§5) Women aged 30-65 having wrinkles around eyes were tested. […] They had second and third visits at the interval of 2 weeks after the start of use, and at each visit, were required to respond to various types of assessment and investigation defined in the experiment.\n(§6) Furthermore, safety assessment was performed, and for safety of clinical test product, in all subjects having used the test product at least once, abnormal responses found at the second week and fourth week after use and abnormal responses reported during the test period were all used as safety assessment data of the product."}, "[2]": {"system": "skin", "conditions": "in vivo", "method": "as §5, §6"}, "[3]": {"system": "glaucoma animal model having microbead-induced elevated intraocular pressure", "test": "Glaucoma test: intraocular pressure", "format": "in vivo, mouse", "conditions": "20 ug/ml applied to eye once daily", "description": "For control drug, Taflotan eye drops (Santen Pharmaceutical Co., Ltd.) were used, and for test drug, Taflotan eye drops+HU024 (SEQ ID NO:2) (sample 1), HU024 (SEQ ID NO:2) (sample 2), HU025 (SEQ ID NO:3) (sample 3), HU026 (SEQ ID NO:4) (sample 4), and HU027 (SEQ ID NO:5) (sample 5) were used, and testing was performed on glaucoma animal model having microbead-induced elevated intraocular pressure. In experimental animal model, Rompun solution for injection and zoletil were mixed and used to put the experimental animal under anesthesia, topical anesthetic Alcaine was applied to eye, 1×106 microbead/mL 1 μL was injected into anterior chamber using micro glass needle to induce an increase in intraocular pressure for 2 weeks (IOVS 2011 Vol. 52 36-).\nThe control drug and 5 samples were provided to the experimental animal having the elevated intraocular pressure for 2 weeks, 5 samples were applied to eye once daily, comparative verification of efficacy was performed, and intraocular pressure reduction and optic nerve cell in the retina was observed through administration for 4 weeks.\nThe intraocular pressure was measured using a contact-type intraocular pressure meter Tono lab's tonometer TV02 model. […] In 5-7 days after fluorescent probe injection, the eye was enucleated and fixed in 4% paraformaldehyde at room temperature for 4 hours. The retina was separated from choroid of the fixed eye and mounted on a slide. In each experimental group slide, optic nerve cell expressing fluorescence was detected using fluorescence microscope, images were taken at a magnification of ×40 and ×200, and data was collected."}, "[4]": {"system": "hair growth of C57BL/6 mouse", "test": "Hair growth test: hair growing area", "format": "in vivo", "description": "(§1) This test was conducted to assess the influence on hair growth of C57BL/6 mouse when 4 types of test substances, HU024 (SEQ ID NO:2), HU025 (SEQ ID NO:3), HU026 (SEQ ID NO:4), and HU027 (SEQ ID NO:5), were applied to the skin for 14 days.\n(§2) The group design was set to negative control (sterile water for injection G1), test substance HU024 (SEQ ID NO:2) 20 ug/head/day (G2), test substance HU024 (SEQ ID NO:2) 60 ug/head/day (G3), test substance HU025 (SEQ ID NO:3) 20 ug/head/day (G4), test substance HU025 (SEQ ID NO:3) 60 ug/head/day (G5), test substance HU026 (SEQ ID NO:4) 20 ug/head/day (G6), test substance HU026 (SEQ ID NO:4) 60 ug/head/day (G7), test substance HU027 (SEQ ID NO:5) 20 ug/head/day (G8), test substance HU027 (SEQ ID NO:5) 60 ug/head/day (G9) and positive control minoxyl 3% (G10) administered groups. Each group had 10 animals.\n(§3) After the animal was put under anesthesia using zoletil (1 mL/kg, i.p), the back of the animal was primarily shaved using a depilator, and Veet depilatory was evenly applied on the back. After about 5 minutes, the applied site was cleaned up using gauze moistened with sterile water for injection. Only animal whose shaved back was scarlet in color was used for group separation. The test substance was applied to the same site daily once per day, 7 times per week for 14 days, and the test substance was evenly applied to the shaved site (on the back) by rubbing with a glass rod about 10 times.\nThe hair growing area (%) relative to the test substance-applied area was measured and determined, and Image analyzer program (Image Pro Plus ver. 6.3, Cybermetics, USA) was used to measure. […] Imaging was performed together with the measurements on the date when the hair area was measured. On the next day after the end of application, the animals were killed by CO2 gas, and hair on the hair growing area was removed by a depilator and hair weight was measured.\n(§4) The measurement results were analyzed using SPSS (ver. 10.1K), Duncan t-test for weight changes was conducted through one-way analysis of variance, hair weight was compared between groups using Student's t-test, and hair growing area was compared between groups through nonparametric multiple comparison procedures Whitney-Mann methods. P<0.05 was determined to be statistically significant."}, "[5]": {"system": "hair growth of C57BL/6 mouse", "test": "Hair growth test: hair weight", "format": "in vivo", "description": "as §1, §2, §3\nThe hair growing area (%) relative to the test substance-applied area was measured and determined, and Image analyzer program (Image Pro Plus ver. 6.3, Cybermetics, USA) was used to measure. It was measured on the 1st, 3rd, 7th, 10th and 14th days after test substance administration. Imaging was performed together with the measurements on the date when the hair area was measured. On the next day after the end of application, the animals were killed by CO2 gas, and hair on the hair growing area was removed by a depilator and hair weight was measured.\nas §4"}},
  "note": "Where two headings read alike, the source gives them in different places. Positions of bridges follow the written chain, without caps; N, C: chain ends. No end group written: not given here.",
  "data": [
    {"substance": "HU022: polypeptide consisting of 452nd-509th amino acids of ADAM 15 (GenBank AAH14566.1), 58 amino acids; commercial product (EYEGENE Inc.)", "values": [
      {"measurement": "abnormal response / skin irritation", "setting": "[1]", "value": "safe product not causing irritation to the skin"}
    ]},
    {"substance": "HU024 (RPTRGDCDLPEFCPG; disulfide 7-13; listed as Homo sapiens)", "values": [
      {"measurement": "abnormal response / skin irritation", "setting": "[2]", "value": "safe product not causing irritation to the skin"},
      {"measurement": "intraocular pressure change", "setting": "[3]", "value": "A reduction in intraocular pressure was observed"},
      {"measurement": "HAIR AREA (%)", "setting": "[4]; 20 ug/head/day, Day 1", "value": "0.02 ± 0.01", "unit": "%"},
      {"measurement": "HAIR AREA (%)", "setting": "[4]; 20 ug/head/day, Day 4", "value": "0.06 ± 0.04", "unit": "%"},
      {"measurement": "HAIR AREA (%)", "setting": "[4]; 20 ug/head/day, Day 7", "value": "0.44 ± 0.19", "unit": "%"},
      {"measurement": "HAIR AREA (%)", "setting": "[4]; 20 ug/head/day, Day 10", "value": "7.55 ± 2.56", "unit": "%"},
      {"measurement": "HAIR AREA (%)", "setting": "[4]; 20 ug/head/day, Day 14", "value": "67.34 ± 9.03", "unit": "%"},
      {"measurement": "HAIR AREA (%)", "setting": "[4]; 60 ug/head/day, Day 1", "value": "0.04 ± 0.04", "unit": "%"},
      {"measurement": "HAIR AREA (%)", "setting": "[4]; 60 ug/head/day, Day 4", "value": "0.00 ± 0.00", "unit": "%"},
      {"measurement": "HAIR AREA (%)", "setting": "[4]; 60 ug/head/day, Day 7", "value": "0.85 ± 0.75", "unit": "%"},
      {"measurement": "HAIR AREA (%)", "setting": "[4]; 60 ug/head/day, Day 10", "value": "6.56 ± 3.04", "unit": "%"},
      {"measurement": "HAIR AREA (%)", "setting": "[4]; 60 ug/head/day, Day 14", "value": "55.69 ± 12.45", "unit": "%"},
      {"measurement": "HAIR WEIGHTS", "setting": "[5]; 20 ug/head/day for 14 days", "value": "0.016 ± 0.003", "unit": "g"},
      {"measurement": "HAIR WEIGHTS", "setting": "[5]; 60 ug/head/day for 14 days", "value": "0.023 ± 0.008", "unit": "g"}
    ]}
  ]
}
